Data from US9668477B2, “Active compound combinations” (BAYER CROPSCIENCE AG, priority 2012, dated 2017).

How the values were obtained:
Type in all cases: in vivo
Phakopsora pachyrhizi = assay: Phakopsora test (soybeans)/preventive; conditions: 7 days after inoculation
Puccinia triticina = assay: Puccinia triticina-test (wheat)/preventive; conditions: Table E1, 8 days after inoculation
Experimental: (§1) Solvent: 49 parts by weight of N,N-dimethylacetamide
(§2) Emulsifier: 1 part by weight of alkylaryl polyglycol ether
(§3) To produce a suitable preparation of active compound, 1 part by weight of active compound or active compound combination is mixed with the stated amounts of solvent and emulsifier, and the concentrate is diluted with water to the desired concentration.
(§4) To test for preventive activity, young plants are sprayed with the preparation of active compound or active compound combination at the stated rate of application.
After the spray coating has been dried, the plants are sprayed with a spore suspension of Puccinia triticina. The plants remain for 48 hours in an incubation cabinet at approximately 20° C. and a relative atmospheric humidity of approximately 100%.
(§5) The plants are placed in the greenhouse at a temperature of approximately 20° C. and a relative atmospheric humidity of approximately 80%.
(§6) The test is evaluated 8 days after the inoculation. 0% means an efficacy which corresponds to that of the untreated control, while an efficacy of 100% means that no disease is observed.

Pyrenophora teres = assay: Pyrenophora teres-test (barley)/preventive; conditions: Table F1, 8 days after inoculation
Experimental: as §1, §2, §3, §4
After the spray coating has been dried, the plants are sprayed with a spore suspension of Pyrenophora teres. The plants remain for 48 hours in an incubation cabinet at approximately 20° C. and a relative atmospheric humidity of approximately 100%.
as §5, §6

Uromyces appendiculatus = assay: Uromyces test (beans)/preventive; conditions: 10 days after inoculation
Experimental: (§7) Solvent: 24.5 parts by weight of acetone • 24.5 parts by weight of dimethylacetamide
as §2
(§8) To produce a suitable preparation of active compound, 1 part by weight of active compound is mixed with the stated amounts of solvent and emulsifier, and the concentrate is diluted with water to the desired concentration.
(§9) To test for preventive activity, young plants are sprayed with the preparation of active compound at the stated rate of application. After the spray coating has dried on, the plants are inoculated with an aqueous spore suspension of the causal agent of bean rust (Uromyces appendiculatus) and then remain for 1 day in an incubation cabinet at approximately 20° C. and a relative atmospheric humidity of 100%.
The plants are then placed in a greenhouse at approximately 21° C. and a relative atmospheric humidity of approximately 90%.
The test is evaluated 10 days after the inoculation. 0% means an efficacy which corresponds to that of the untreated control, while an efficacy of 100% means that no disease is observed.

Venturia inaequalis = assay: Venturia test (apples)/preventive; conditions: Table I1, 10 days after inoculation
Experimental: (§10) Solvent: 24.5 parts by weight of acetone • 24.5 parts by weight of dimethylacetamide Emulsifier: 1 part by weight of alkylaryl polyglycol ether To produce a suitable preparation of active compound, 1 part by weight of active compound is mixed with the stated amounts of solvent and emulsifier, and the concentrate is diluted with water to the desired concentration. To test for preventive activity, young plants are sprayed with the preparation of active compound at the stated rate of application.

Alternaria solani = assay: Alternaria test (tomatoes)/preventive; conditions: 3 days after inoculation
Experimental: as §7, §2, §8
as §9, with “Alternaria solani. The plants are” for “the causal agent of bean rust (Uromyces appendiculatus) and”, “placed” for “remain for 1 day”
The test is evaluated 3 days after the inoculation. 0% means an efficacy which corresponds to that of the untreated control while an efficacy of 100% means that no disease is observed.

Sphaerotheca fuliginea = assay: Sphaerotheca test (cucumbers)/preventive; conditions: Table G1, 7 days after inoculation
Experimental: as §10, with “application. After the spray coating has dried on, the plants are inoculated with an aqueous spore suspension of Sphaerotheca fuliginea.” for “application.”

Leptosphaeria nodorum = Leptosphaeria nodorum test (wheat)/preventive; conditions: Table C1, 8 days after inoculation
Experimental: Solvent: 49 parts by weight of N,N-dimethylacetamide Emulsifier: 1 part by weight of alkylaryl polyglycol ether To produce a suitable preparation of active compound, 1 part by weight of active compound or active compound combination is mixed with the stated amounts of solvent and emulsifier, and the concentrate is diluted with water to the desired concentration. To test for preventive activity, young plants are sprayed with the preparation of active compound or active compound combination at the stated rate of application. After the spray coating has been dried, the plants are sprayed with a spore suspension of Leptosphaeria nodorum.

[1] = system: Blumeria graminis f.sp. hordei; assay: Blumeria test (barley)/preventive; conditions: Table B1, 7 days after inoculation
Experimental: Solvent: 49 parts by weight of N,N-dimethylacetamide Emulsifier: 1 part by weight of alkylaryl polyglycol ether To produce a suitable preparation of active compound, 1 part by weight of active compound or active compound combination is mixed with the stated amounts of solvent and emulsifier, and the concentrate is diluted with water to the desired concentration. To test for preventive activity, young plants are sprayed with the preparation of active compound or active compound combination at the stated rate of application. After the spray coating has been dried, the plants are dusted with spores of Blumeria graminis f.sp. hordei.

[2] = Phakopsora pachyrhizi, 168 h, Table D1, 1 ppm a.i., read-out: Efficacy in % found

Compound: OC(Cc1ccccc1Cl)(Cn1nc[nH]c1=S)C1(Cl)CC1 (stereo not drawn) [1.41, prothioconazole]
- pest or weed control at 0.5 ppm (Phakopsora pachyrhizi; Phakopsora pachyrhizi, 168 h, Table D2, 0.5 ppm a.i., read-out: Efficacy in % found): 20%
- Efficacy in % found (Puccinia triticina; 80 ppm a.i.): 20%

Compound: Cn1cc(C(=O)Nc2cccc3c2[C@@H]2CC[C@H]3C2=C(Cl)Cl)c(C(F)F)n1 (racemic) [2.29, benzovindiflupyr]
- Efficacy in % found (Phakopsora pachyrhizi; Table D1, 0.5 ppm a.i.): 8%
- Efficacy in % found (Pyrenophora teres; 40 ppm a.i.): 0%

Compound: N#Cc1c(Cl)c(Cl)c(Cl)c(C#N)c1Cl [5.4, chlorothalonil]
- Efficacy in % found (Puccinia triticina; 160 ppm a.i.): 20%
- Efficacy in % found (Uromyces appendiculatus; Table H2, 20 ppm a.i.): 0%
- Efficacy in % found (Venturia inaequalis; 20 ppm a.i.): 68%
- Efficacy in % found (Alternaria solani; Table A2, 20 ppm a.i.): 8%
- Efficacy in % found (Sphaerotheca fuliginea; 5 ppm a.i.): 19%

Compound: COC(=O)N(OC)c1ccccc1COc1ccn(-c2ccc(Cl)cc2)n1 [3.17, pyraclostrobin]
- Efficacy in % found (Puccinia triticina; 20 ppm a.i.): 20%

Compound: CO/N=C(/C1=NOCCO1)c1ccccc1Oc1ncnc(Oc2ccccc2Cl)c1F [3.12, fluoxastrobin]
- Efficacy in % found (Pyrenophora teres; 20 ppm a.i.): 13%

Compound: O=C(NCCc1ncc(C(F)(F)F)cc1Cl)c1ccccc1C(F)(F)F [2.6, fluopyram]
- pest or weed control at 4 ppm (Phakopsora pachyrhizi; Phakopsora pachyrhizi, 168 h, Table D1, 4 ppm a.i., read-out: Efficacy in % found): 0%
- Efficacy in % found (Pyrenophora teres; 40 ppm a.i.): 94%

Compound: Fc1ccc([C@]2(Cn3cncn3)O[C@H]2c2ccccc2Cl)cc1 (racemic) [1.12, epoxiconazole]
- Efficacy in % found (Phakopsora pachyrhizi; Table D2, 0.5 ppm a.i.): 23%
- Efficacy in % found (Leptosphaeria nodorum; 40 ppm a.i.): 33%

Compound: CC(C)(C)C(O)(CCc1ccc(Cl)cc1)Cn1cncn1 (stereo not drawn) [1.47, tebuconazole]
- pest or weed control at 1 ppm (Phakopsora pachyrhizi; [2]): 58%
- Efficacy in % found (Uromyces appendiculatus; Table H2, 2 ppm a.i.): 30%
- Efficacy in % found (Sphaerotheca fuliginea; 2.5 ppm a.i.): 38%

Compound: CO/C=C(/C(=O)OC)c1ccccc1COc1cccc(C(F)(F)F)n1 [3.16, picoxystrobin]
- Efficacy in % found (Pyrenophora teres; 40 ppm a.i.): 75%
- Efficacy in % found (Uromyces appendiculatus; Table H1, 2.5 ppm a.i.): 65%
- Efficacy in % found ([1]; 40 ppm a.i.): 30%

Compound: CC1(C)CCC(Cc2ccc(Cl)cc2)C1(O)Cn1cncn1 (stereo not drawn) [1.30, metconazole]
- Efficacy in % found (Puccinia triticina; 40 ppm a.i.): 70%

Compound: CC(C)CC(C)c1sccc1NC(=O)c1cn(C)nc1C(F)(F)F (stereo not drawn) [2.21, penthiopyrad]
- Efficacy in % found (Pyrenophora teres; 80 ppm a.i.): 63%
- Efficacy in % found ([1]; 80 ppm a.i.): 30%

Compound: CC(C)c1ccc(Cl)cc1CN(C(=O)c1c(C(F)F)nn(C)c1F)C1CC1 [15.151, N-(5-chloro-2-isopropylbenzyl)-N-cyclopropyl-3-(difluoromethyl)-5-fluoro-1-methyl-1H-pyrazole-4-carboxamide]
- Efficacy in % found (Pyrenophora teres; 20 ppm a.i.): 88%
- Efficacy in % found ([1]; 20 ppm a.i.): 0%
- Efficacy in % found (Alternaria solani; Table A1, 0.25 ppm a.i.): 39%

Compound: Cn1c(=O)c2sc3c(=O)n(C)c(=O)c3sc2c1=O [15.61, 2,6-dimethyl-1H,5H-[1,4]dithiino[2,3-c:5,6-c′]dipyrrole-1,3,5,7(2H,6H)-tetrone]
- Efficacy in % found (Puccinia triticina; 800 ppm a.i.): 40%
- Efficacy in % found (Alternaria solani; Table A2, 50 ppm a.i.): 23%
- Efficacy in % found (Sphaerotheca fuliginea; 25 ppm a.i.): 38%

Compound: CON=C(C(=O)OC)c1ccccc1CON=C(C)c1cccc(C(F)(F)F)c1 [3.22, trifloxystrobin]
- Efficacy in % found (Puccinia triticina; 20 ppm a.i.): 60%
- Efficacy in % found (Venturia inaequalis; 0.5 ppm a.i.): 86%

Compound: propineb [5.29]
- Efficacy in % found (Puccinia triticina; 400 ppm a.i.): 30%
- Efficacy in % found (Uromyces appendiculatus; Table H2, 20 ppm a.i.): 56%
- Efficacy in % found (Venturia inaequalis; 5 ppm a.i.): 14%
- Efficacy in % found (Leptosphaeria nodorum; 400 ppm a.i.): 33%
- Efficacy in % found (Alternaria solani; Table A2, 20 ppm a.i.): 12%
- Efficacy in % found (Sphaerotheca fuliginea; 10 ppm a.i.): 29%

Compound: CO/C=C(/C(=O)OC)c1ccccc1Oc1cc(Oc2ccccc2C#N)ncn1 [3.3, azoxystrobin]
- Efficacy in % found (Phakopsora pachyrhizi; Table D1, 0.25 ppm a.i.): 15%
- Efficacy in % found (Pyrenophora teres; 20 ppm a.i.): 75%
- Efficacy in % found (Uromyces appendiculatus; Table H3, 0.125 ppm a.i.): 0%
- Efficacy in % found (Venturia inaequalis; 0.5 ppm a.i.): 88%
- Efficacy in % found ([1]; 20 ppm a.i.): 10%

Compound: CC1CC(C)(C)c2cccc(NC(=O)c3cn(C)nc3C(F)F)c21 (stereo not drawn) [2.32, 3-(difluoromethyl)-1-methyl-N-(1,1,3-trimethyl-2,3-dihydro-1H-inden-4-yl)-1H-pyrazole-4-carboxamide]
- Efficacy in % found ([1]; 80 ppm a.i.): 30%

Compound: CC(C1CC1)C(O)(Cn1cncn1)c1ccc(Cl)cc1 (stereo not drawn) [1.5, cyproconazole]
- pest or weed control at 1 ppm (Phakopsora pachyrhizi; [2]): 63%
- Efficacy in % found (Uromyces appendiculatus; Table H3, 1 ppm a.i.): 57%
- Efficacy in % found (Venturia inaequalis; 2 ppm a.i.): 40%

Compound: Cn1cc(C(=O)Nc2ccc(F)cc2-c2ccc(Cl)c(Cl)c2)c(C(F)F)n1 [2.1, bixafen]
- Efficacy in % found (Phakopsora pachyrhizi; Table D1, 1 ppm a.i.): 0%
- Efficacy in % found (Pyrenophora teres; 80 ppm a.i.): 94%
- Efficacy in % found (Venturia inaequalis; 0.5 ppm a.i.): 0%
- Efficacy in % found (Alternaria solani; Table A1, 0.5 ppm a.i.): 43%

Compound: Cn1cc(C(=O)Nc2ccccc2-c2cc(F)c(F)c(F)c2)c(C(F)F)n1 [2.8, fluxapyroxad]
- Efficacy in % found (Phakopsora pachyrhizi; Table D1, 1 ppm a.i.): 0%
- Efficacy in % found (Pyrenophora teres; 40 ppm a.i.): 94%
- Efficacy in % found (Uromyces appendiculatus; Table H1, 0.25 ppm a.i.): 0%
